According to US4307108A, “Method for lowering sorbitol levels using spiro-imides” (Pfizer Inc., priority 1979, dated 1981):
Where a name gives a salt, the structure may show the parent alone.

What was measured:
[1] = toxic side effects in diabetic rats on oral administration; assay type: in vivo; details: dose level as low as 2.5 mg./kg.
From the text: As previously indicated, the spiro-imide compounds of this invention reduce lens sorbitol levels in diabetic subjects. […] The other compounds of this invention also cause similar results. Furthermore, the herein described compounds can be administered by either the oral or parenteral routes of administration without causing any significant untoward pharmacological side reactions in the subjects to whom they are so administered. These compounds are ordinarily administered in dosages ranging from about 0.25 mg. to about 25 mg. per kg. of body weight per day, although variations will necessarily occur depending upon the actual condition of the subject being treated and the particular route of administration chosen.

[2] = system: sorbitol accumulation in the sciatic nerve of streptozotocinized (i.e., diabetic) rats; experiment: reduction/inhibition of sorbitol accumulation in the sciatic nerve of acutely streptozotocinized (diabetic) rats; assay type: in vivo; details: for Percent Inhibition (%): oral, 4, 8 and 24 hours after streptozotocin, sorbitol in sciatic nerve measured 27 hours after induction of diabetes, vs. untreated animal
Experimental: The activity of the compounds of the present invention, as agents for the control of chronic diabetic complications, is determined by their ability to successfully pass one or more of the following standard biological and/or pharmacological tests, viz., (1) measuring their ability to reduce or inhibit sorbitol accumulation in the sciatic nerve of acutely streptozotocinized (i.e., diabetic) rats; (2) measuring their ability to reverse already-elevated sorbitol levels in the sciatic nerve and lens of chronic streptozotocin-induced diabetic rats; (3) measuring their ability to prevent or inhibit galactitol formation in the lens of acutely galactosemic rats, and (4) measuring their ability to delay cataract formation and reduce the severity of lens opacities in chronic galactosemic rats.
The following spiro-imide compounds of Preparation C and Examples 1-5, respectively, were tested for their ability to reduce or inhibit sorbitol accumulation in the sciatic nerve of streptozotocinized (i.e., diabetic) rats essentially by the procedure described in U.S. Pat. No. 3,821,383. In the present study, the amount of sorbitol accumulation in the sciatic nerves was measured 27 hours after induction of diabetes. The compounds were administered orally at the dose levels indicated 4, 8 and 24 hours following the administration of streptozotocin. The results obtained in this manner are presented below in terms of percent inhibition (%) afforded by the test compound as compared to the case where no compound was administered (i.e., the untreated animal where sorbitol levels normally rise from approximately […]. tissue to as high as […]. tissue in the 27-hour test period): […]

[3] = water solubility of salt; assay type: physicochemical; details: sodium salt, amorphous powder, freeze-dried

## O=C1CC2(CCc3ccccc32)C(=O)N1 (stereo not drawn) [Product of Ex. 1, 2,3-dihydro-spiro-[1H-indene-1,3'-pyrrolidine]-2',5'-dione]
[1]
  substantial signs of toxic side effects: without showing any substantial signs of toxic side effects
[2]; 2.5 mg./kg.
  Percent Inhibition (%): 28%
[2]; oral, dose level as low as 2.5 mg./kg., result in words
  inhibit the formation of sorbitol levels in the sciatic nerve of diabetic rats: to a significant degree

## O=C1CC2(CCOc3ccc(Cl)cc32)C(=O)N1 (stereo not drawn) [Product of Ex. 2, 6-chloro-2,3-dihydro-spiro-[4H-1-benzopyran-4,3'-pyrrolidine]-2',5'-dione]
[2]; 5.0 mg./kg.
  Percent Inhibition (%): 13%

## O=C1CC2(Cc3ccccc3C2)C(=O)N1 [Product of Ex. 3, 2,3-dihydro-spiro-[1H-indene-2,3'-pyrrolidine]-2',5'-dione]
[2]; 25 mg./kg.
  Percent Inhibition (%): 33%

## O=C1CC2(CCCc3sccc32)C(=O)N1 (stereo not drawn) [Product of Ex. 4, 6,7-dihydro-spiro-[5H-benzo(b)thiophene-4,3'-pyrrolidine]-2',5'-dione]
[2]; 25 mg./kg.
  Percent Inhibition (%): 51%

## O=C1CCC2(CCCc3ccccc32)C(=O)N1 (stereo not drawn) [Product of Ex. 5, 3,4-dihydro-spiro-[2H-naphthalene-1,3'-piperidine]-2',6'-dione]
[2]; 25 mg./kg.
  Percent Inhibition (%): 23%

## O=C1CC2(CCCc3ccccc32)C(=O)N1 (stereo not drawn) [Product of Prep. C, 3,4-dihydro-spiro-[2H-naphthalene-1,3'-pyrrolidine]-2',5'-dione]
[2]; 5.0 mg./kg.
  Percent Inhibition (%): 46%

## O=C1CC2(CCc3ccccc32)C(=O)N1 (stereo not drawn) [sodium salt of 3,4-dihydro-spiro-[1H-indene-1,3'-pyrrolidino]-2',5'-dione]
[3]
  solubility in water: freely-soluble in water
